Reference: patent publication US6506742B2, “Soluble contraceptive liquid formulation” (Ortho-McNeil Pharmaceutical, Inc., priority 1999, dated 2003)

Assay: Stability study of oral contraceptive liquid formulation stored at room temperature, amount of contraceptive in solution
Type: physicochemical
Conditions: solubilized according to the process (EtOH/PEG 400/water)
Source text: A formulation as prepared in Examples 1 or 2, as shown in Table 3 were stored in a container at room temperature and tested periodically for the amount of contraceptive in solution. The reported figure of the contraceptives in solution is in percent of label claim.

solubility and stability in water	Structure (SMILES)
greatly increased	C#C[C@]1(OC(C)=O)CC[C@H]2[C@@H]3CCC4=CC(=NO)CC[C@@H]4[C@H]3CC[C@@]21CC (mixture of isomers) [NGM, Norgestimate]
greatly increased	C#C[C@]1(O)CC[C@H]2[C@@H]3CCc4cc(O)ccc4[C@H]3CC[C@@]21C [EE, ethinyl estradiol]
